Experimental data from US20240199654A1, “CTLA-4 SMALL MOLECULE DEGRADATION AGENT AND APPLICATION THEREOF” (SUZHOU GUOKUANG PHARMTECH. CO., LTD., priority 2021, published 2024).

Target: T1, LRBA and CTLA-4 reporting system (Homo sapiens, UniProt P16410+P50851)
T1 construct: expressed in transfected cells; host or cells: HEK293
Assay: LRBA/CTLA-4 protein-protein interaction reporting system, dual luciferase assay in HEK293 cells
Type: cell-based
Conditions: HEK293 cells co-transfected with LRBA and CTLA-4 reporting system, 24 h after dosing; read-out: In vitro activity (IC50: concentration of compounds that inhibit 50% of reporting system activity)
Procedure: HEK293 cells were spread on 96-well plates, and LRBA and CTLA-4 reporting system were co-transfected into HEK293 cells after 24 h. After 24 h, different compounds with final concentrations of 0.01, 0.033, 0.10, 0.33, 1.00, 3.33, 10.00, 33.33, and 100.00 μM were added. 24 h after dosing, the cell culture medium was removed and the cells were washed with cold PBS. Then the activity of the compounds were detected by the dual luciferase assay kit, and IC50 values were calculated according to the results.
For the compounds with strong activity (IC50<200 nM), the degradation of CTLA-4 protein was further detected by Western Blot. • IC50: Concentration of compounds that inhibit 50% of reporting system activity The size of IC50 is divided into four levels: • ++++, IC50<200 nM; +++, IC50 is 200-1000 nM; ++, IC50 is 1000-2000 nM; +, IC50>2000 nM.

T1 sequence (P16410 36-223): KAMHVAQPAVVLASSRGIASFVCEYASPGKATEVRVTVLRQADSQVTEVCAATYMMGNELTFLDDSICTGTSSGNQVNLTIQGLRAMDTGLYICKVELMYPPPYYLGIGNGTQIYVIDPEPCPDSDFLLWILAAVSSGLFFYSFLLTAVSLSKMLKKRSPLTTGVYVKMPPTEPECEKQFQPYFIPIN
T1 sequence (P50851 whole entry): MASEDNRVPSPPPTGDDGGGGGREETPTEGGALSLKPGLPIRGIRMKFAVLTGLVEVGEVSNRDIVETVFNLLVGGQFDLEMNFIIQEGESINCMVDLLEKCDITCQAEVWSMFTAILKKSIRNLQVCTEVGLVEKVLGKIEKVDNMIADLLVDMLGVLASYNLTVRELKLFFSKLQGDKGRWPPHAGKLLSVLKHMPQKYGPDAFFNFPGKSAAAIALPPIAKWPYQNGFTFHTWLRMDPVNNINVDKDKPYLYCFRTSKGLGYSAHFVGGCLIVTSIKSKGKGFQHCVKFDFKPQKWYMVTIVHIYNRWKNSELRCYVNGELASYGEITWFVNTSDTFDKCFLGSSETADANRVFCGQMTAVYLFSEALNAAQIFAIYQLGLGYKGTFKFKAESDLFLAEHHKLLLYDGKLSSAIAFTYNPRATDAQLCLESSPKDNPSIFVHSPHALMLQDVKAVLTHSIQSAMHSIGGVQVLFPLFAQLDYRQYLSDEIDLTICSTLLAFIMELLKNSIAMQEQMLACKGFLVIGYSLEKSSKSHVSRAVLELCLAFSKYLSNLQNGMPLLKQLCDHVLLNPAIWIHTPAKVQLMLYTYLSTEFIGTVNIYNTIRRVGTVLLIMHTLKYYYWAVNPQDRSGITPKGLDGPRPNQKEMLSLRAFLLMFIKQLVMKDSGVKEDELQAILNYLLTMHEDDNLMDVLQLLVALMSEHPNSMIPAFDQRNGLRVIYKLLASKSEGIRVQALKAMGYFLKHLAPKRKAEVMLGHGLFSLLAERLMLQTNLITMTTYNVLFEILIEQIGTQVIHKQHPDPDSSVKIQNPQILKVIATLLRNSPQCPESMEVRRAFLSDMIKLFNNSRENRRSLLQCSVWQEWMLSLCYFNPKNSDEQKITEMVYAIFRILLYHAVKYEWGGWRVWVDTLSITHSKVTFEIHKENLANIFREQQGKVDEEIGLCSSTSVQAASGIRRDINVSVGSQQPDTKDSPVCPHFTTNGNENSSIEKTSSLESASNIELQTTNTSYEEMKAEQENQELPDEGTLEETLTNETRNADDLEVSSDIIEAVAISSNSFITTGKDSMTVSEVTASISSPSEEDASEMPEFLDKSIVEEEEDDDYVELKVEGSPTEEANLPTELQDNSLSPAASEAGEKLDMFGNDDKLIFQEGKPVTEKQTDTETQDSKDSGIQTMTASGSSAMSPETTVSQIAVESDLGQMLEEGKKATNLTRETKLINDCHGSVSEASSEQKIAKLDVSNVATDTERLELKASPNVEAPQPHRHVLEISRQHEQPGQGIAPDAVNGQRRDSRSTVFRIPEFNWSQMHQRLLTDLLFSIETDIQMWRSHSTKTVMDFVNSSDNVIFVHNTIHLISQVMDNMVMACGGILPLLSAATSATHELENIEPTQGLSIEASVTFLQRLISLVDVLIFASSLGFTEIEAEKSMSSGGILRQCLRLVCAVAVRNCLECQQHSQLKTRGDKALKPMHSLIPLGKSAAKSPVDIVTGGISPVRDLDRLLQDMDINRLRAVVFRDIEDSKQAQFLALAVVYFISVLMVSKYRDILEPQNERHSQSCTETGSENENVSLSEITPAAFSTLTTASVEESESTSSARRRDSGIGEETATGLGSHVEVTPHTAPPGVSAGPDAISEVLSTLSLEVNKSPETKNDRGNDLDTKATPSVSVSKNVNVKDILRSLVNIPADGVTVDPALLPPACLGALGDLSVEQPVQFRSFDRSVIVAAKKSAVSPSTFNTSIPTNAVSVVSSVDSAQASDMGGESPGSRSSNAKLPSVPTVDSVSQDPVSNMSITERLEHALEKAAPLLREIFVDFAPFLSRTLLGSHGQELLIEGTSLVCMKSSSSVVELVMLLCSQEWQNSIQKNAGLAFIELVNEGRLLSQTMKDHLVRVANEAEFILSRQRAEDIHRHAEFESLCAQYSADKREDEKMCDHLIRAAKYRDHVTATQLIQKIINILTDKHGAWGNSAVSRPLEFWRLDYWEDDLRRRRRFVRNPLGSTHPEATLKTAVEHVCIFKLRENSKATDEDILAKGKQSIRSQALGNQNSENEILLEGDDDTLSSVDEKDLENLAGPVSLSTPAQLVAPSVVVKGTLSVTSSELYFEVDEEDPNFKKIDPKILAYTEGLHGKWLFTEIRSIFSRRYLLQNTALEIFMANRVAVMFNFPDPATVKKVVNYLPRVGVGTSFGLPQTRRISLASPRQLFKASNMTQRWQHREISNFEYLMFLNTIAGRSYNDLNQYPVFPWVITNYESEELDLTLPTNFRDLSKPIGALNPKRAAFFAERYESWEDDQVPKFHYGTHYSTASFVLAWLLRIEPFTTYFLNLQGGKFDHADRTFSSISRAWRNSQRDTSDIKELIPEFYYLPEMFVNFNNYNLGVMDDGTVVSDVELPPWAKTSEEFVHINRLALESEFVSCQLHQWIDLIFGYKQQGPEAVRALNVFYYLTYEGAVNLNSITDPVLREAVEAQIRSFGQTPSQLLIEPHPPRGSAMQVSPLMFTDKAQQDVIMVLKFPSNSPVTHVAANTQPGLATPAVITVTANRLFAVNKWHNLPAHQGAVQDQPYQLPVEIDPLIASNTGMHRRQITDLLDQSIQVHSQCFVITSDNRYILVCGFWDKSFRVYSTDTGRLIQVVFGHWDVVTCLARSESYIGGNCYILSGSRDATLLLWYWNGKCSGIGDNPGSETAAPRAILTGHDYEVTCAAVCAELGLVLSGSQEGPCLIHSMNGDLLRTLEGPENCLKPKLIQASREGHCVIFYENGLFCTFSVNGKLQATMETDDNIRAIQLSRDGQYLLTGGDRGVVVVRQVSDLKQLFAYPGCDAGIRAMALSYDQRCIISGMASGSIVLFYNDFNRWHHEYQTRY

| Compound | IC50 [µM] |
| --- | --- |
| c1ccc2cc(-c3ccnc(N4CCNCC4)n3)ccc2c1 [Comparing compound 1, reference compound] | > 2 |
| NCC1CCN(c2nccc(-c3cnc4ccccc4c3)n2)CC1 [Compound 1, (1-(4-(quinolin-3-yl)pyrimidin-2-yl)piperidin-4-yl)methylamine] | < 0.2 |
| O=CNCC1CCN(c2nccc(-c3cnc4ccccc4c3)n2)CC1 [Compound 2, N-((1-(4-(quinolin-3-yl)pyrimidin-2-yl)piperidin-4-yl)methyl)formamide] | > 2 |
| NCC1CCN(c2nccc(-c3ccc4ncccc4c3)n2)CC1 [Compound 3, (1-(4-(quinolin-6-yl)pyrimidin-2-yl)piperidin-4-yl)methylamine] | > 2 |
| O=CNCC1CCN(c2nccc(-c3ccc4ncccc4c3)n2)CC1 [Compound 4, N-((1-(4-(quinolin-6-yl)pyrimidin-2-yl)piperidin-4-yl)methyl)formamide] | > 2 |
| NCC1CCN(c2nccc(-c3ccc4ccccc4n3)n2)CC1 [Compound 5, (1-(4-(quinolin-2-yl)pyrimidin-2-yl)piperidin-4-yl)methylamine] | > 2 |
| NCC1CCN(c2nccc(-c3cnc4ccc(F)cc4c3)n2)CC1 [Compound 7, (1-(4-(6-fluoroquinolin-3-yl)pyrimidin-2-yl)piperidin-4-yl)methylamine] | 0.2 to 1 |
| NCC1CCN(c2nccc(-c3cc4ccccc4nc3N3CCC(CN)CC3)n2)CC1 [Compound 8, (1-(3-(2-(4-(aminomethyl)piperidin-1-yl)pyrimidin-4-yl)quinolin-2-yl)piperidin-4-yl)methylamine] | 1 to 2 |
| COc1nc2ccccc2cc1-c1ccnc(N2CCC(CN)CC2)n1 [Compound 9, (1-(4-(2-methoxyquinolin-3-yl)pyrimidin-2-yl)piperidin-4-yl)methylamine] | < 0.2 |
| NCC1CCN(c2nccc(-c3cc4ccccc4nc3O)n2)CC1 [Compound 10, 3-(2-(4-(aminomethyl)piperidin-1-yl)pyrimidin-4-yl)quinolin-2-ol] | < 0.2 |
| [2H]c1nc2ccccc2cc1-c1ccnc(N2CCC(CN)CC2)n1 [Compound 11, (1-(4-(quinolin-3-yl-2-d)pyrimidin-2-yl)piperidin-4-yl)methylamine] | < 0.2 |
| NCC1CCN(c2cc(-c3cnc4ccccc4c3)ccn2)CC1 [Compound 12, (1-(4-(quinolin-3-yl)pyridin-2-yl)piperidin-4-yl)methylamine] | > 2 |
| NCC1CCN(c2nccc(-c3cc(=O)c4ccccc4o3)n2)CC1 [Compound 13, 2-(2-(4-(aminomethyl)piperidin-1-yl)pyrimidin-4-yl)-4hydro-benzopyran-4-one] | > 2 |
| NCC1CCN(c2cccc(-c3cnc4ccccc4c3)n2)CC1 [Compound 14, (1-(6-(quinolin-3-yl)pyridin-2-yl)piperidin-4-yl)methylamine] | > 2 |
| NCC1CCN(c2cccc(-c3cnc4ccccc4c3)c2)CC1 [Compound 15, (1-(3-(quinolin-3-yl)phenyl)piperidin-4-yl)methylamine] | > 2 |
| NCC1CCN(c2nccc(-c3cc4ccccc4nc3N)n2)CC1 [Compound 16, 3-(2-(4-(aminomethyl)piperidin-1-yl)pyrimidin-4-yl)quinolin-2-amine] | > 2 |
| NC1CCN(c2nccc(-c3cnc4ccccc4c3)n2)CC1 [Compound 17, 1-(4-(quinolin-3-yl)pyrimidin-2-yl)piperidine-4-amine] | 0.2 to 1 |
| NCCC1CCN(c2nccc(-c3cnc4ccccc4c3)n2)CC1 [Compound 19, 2-(1-(4-(quinolin-3-yl)pyrimidin-2-yl)piperidin-4-yl)ethylamine] | 0.2 to 1 |
| OCC1CCN(c2nccc(-c3cnc4ccccc4c3)n2)CC1 [Compound 20, (1-(4-(quinolin-3-yl)pyrimidin-2-yl)piperidin-4-yl)methanol] | > 2 |
| OCCC1CCN(c2nccc(-c3cnc4ccccc4c3)n2)CC1 [Compound 21, (1-(4-(quinolin-3-yl)pyrimidin-2-yl)piperidin-4-yl)ethanol] | > 2 |
| C[C@@H]1CN(c2nccc(-c3cnc4ccccc4c3)n2)C[C@H](C)N1 [Compound 22, 3-(2-((3S,5R)-3,5-dimethylpiperazin-1-yl)pyrimidin-4-yl)quinoline] | > 2 |
| CN1CCN(c2nccc(-c3cnc4ccccc4c3)n2)CC1 [Compound 23, 3-(2-(4-methylpiperazin-1-yl)pyrimidin-4-yl)quinoline] | > 2 |
| c1ccc2ncc(-c3ccnc(N4CCCNCC4)n3)cc2c1 [Compound 24, 3-(2-(1,4-diaza-1-yl)pyrimidin-4-yl)quinoline] | > 2 |
| NCCNc1nccc(-c2cnc3ccccc3c2)n1 [Compound 26, N-(4-(quinolin-3-yl)pyrimidin-2-yl)ethane-1,2-diamine] | < 0.2 |

| Compound | IC50 [µM] |
| --- | --- |
| NCCCNc1nccc(-c2cnc3ccccc3c2)n1 [Compound 27, N-(4-(quinolin-3-yl)pyrimidin-2-yl)propane-1,3-diamine] | 1 to 2 |
| c1cc(-c2cnc3c(c2)OCCO3)nc(N2CCNCC2)n1 [Compound 28, 7-(2-(piperazin-1-yl)pyrimidin-4-yl)-2,3-dihydro-[1,4]dioxy[2,3-b]pyridine] | > 2 |
| c1cc(-c2ccc3c(c2)OCCO3)nc(N2CCNCC2)n1 [Compound 29, 4-(2,3-dihydrobenzo[b][1,4]dioxin-6-yl)-2-(piperazin-1-yl)pyrimidine] | > 2 |
| COc1cc(-c2ccnc(N3CCNCC3)n2)cnc1OC [Compound 30, 4-(5,6-dimethoxy-pyridin-3-yl)-2-piperazin-1-yl-pyrimidine] | > 2 |
| COc1ccc(-c2ccnc(N3CCNCC3)n2)cc1OC [Compound 31, 4-(3,4-dimethoxy-phenyl)-2-piperazin-1-yl-pyrimidine] | > 2 |
| c1ccc2c(-c3ccnc(N4CCNCC4)n3)c[nH]c2c1 [Compound 32, 3-(2-(piperazin-1-yl)pyrimidin-4-yl)-1H-indole] | 0.2 to 1 |
| c1ccc2c(-c3ccnc(N4CCNCC4)n3)coc2c1 [Compound 33, 4-(benzofuran-3-yl)-2-(piperazin-1-yl)pyrimidine] | 0.2 to 1 |
| COc1cc(-c2ccnc(N3CCNCC3)n2)cnc1O [Compound 34, 3-methoxy-5-(2-piperazin-1-yl-pyrimidin-4-yl)-pyridin-2-ol] | > 2 |
| c1ccc2ncc(-c3ncnc(N4CCNCC4)n3)cc2c1 [Compound 35, 3-(4-(piperazin-1-yl)-1,3,5-triazin-2-yl)quinoline] | < 0.2 |
| c1ccc2ncc(-c3nc(N4CCNCC4)nc4ccccc34)cc2c1 [Compound 36, 2-(piperazin-1-yl)-4-(quinolin-3-yl)quinazoline] | 0.2 to 1 |
| c1ccc2ncc(-c3nc(N4CCNCC4)nc4c3CCCC4)cc2c1 [Compound 37, 2-(piperazin-1-yl)-4-(quinolin-3-yl)-5,6,7,8-tetrahydroquinazoline] | 0.2 to 1 |
| Nc1cnc(N2CCNCC2)nc1-c1cnc2ccccc2c1 [Compound 38, 3-(5-amino-2-(piperazin-1-yl)pyrimidin-4-yl)quinoline] | < 0.2 |
| COc1cc(-c2cnc3ccccc3c2)nc(N2CCNCC2)n1 [Compound 39, 3-(6-methoxy-2-(piperazin-1-yl)pyrimidin-4-yl)quinoline] | < 0.2 |
| FC(F)(F)c1cc(-c2cnc3ccccc3c2)nc(N2CCNCC2)n1 [Compound 40, 3-(2-(piperazin-1-yl)-6-(trifluoromethyl)pyrimidin-4-yl)quinoline] | < 0.2 |
| c1ccc2ncc(-c3cc4nccn4c(N4CCNCC4)n3)cc2c1 [Compound 41, 3-(5-(piperazin-1-yl)imidazo[1,2-c]pyrimidin-7-yl)quinoline] | 0.2 to 1 |
| N#Cc1cc(-c2cnc3ccccc3c2)nc(N2CCNCC2)n1 [Compound 42, 3-(6-cyano-2-(piperazin-1-yl)pyrimidin-4-yl)quinoline] | < 0.2 |
| COc1cnc(N2CCNCC2)nc1-c1cnc2ccccc2c1 [Compound 43, 3-(5-methoxy-2-(piperazin-1-yl)pyrimidin-4-yl)quinoline] | < 0.2 |
| Cn1cnc2c(-c3cnc4ccccc4c3)nc(N3CCNCC3)nc21 [Compound 45, 3-(9-methyl-2-(piperazin-1-yl)-9H-purin-6-yl)quinoline] | 0.2 to 1 |
| Fc1cnc(N2CCNCC2)nc1-c1cnc2ccccc2c1 [Compound 46, 3-(5-fluoro-2-(piperazin-1-yl)pyrimidin-4-yl)quinoline] | < 0.2 |
| Nc1cc(-c2cnc3ccccc3c2)nc(N2CCNCC2)n1 [Compound 47, 2-(piperazin-1-yl)-6-(quinolin-3-yl)pyrimidin-4-amine] | < 0.2 |
| Nc1cc(N2CCNCC2)nc(-c2cnc3ccccc3c2)n1 [Compound 48, 6-(piperazin-1-yl)-2-(quinolin-3-yl)pyrimidin-4-amine] | 1 to 2 |
| c1ccc2ncc(-c3cc(N4CCOCC4)nc(N4CCNCC4)n3)cc2c1 [Compound 49, 4-(2-(piperazin-1-yl)-6-(quinolin-3-yl)pyrimidin-4-yl)morpholine] | 0.2 to 1 |
| c1ccc2ncc(-c3nc(N4CCNCC4)ncc3C3CC3)cc2c1 [Compound 50, 3-(5-cyclopropyl-2-(piperazin-1-yl)pyrimidin-4-yl)quinoline] | < 0.2 |
| COc1ccc(-c2cc(-c3cnc4ccccc4c3)nc(N3CCNCC3)n2)cc1 [Compound 51, 3-(6-(4-methoxyphenyl)-2-(piperazin-1-yl)pyrimidin-4-yl)quinoline] | < 0.2 |
